Laboratory results reported in US7517874B2 (priority 2007, dated 2009).
Like-named read-outs stand apart in the source and are kept apart here.

How the values were obtained:
[1] = biological target: human CB1 receptor (hCB1) (Homo sapiens, UniProt P21554); assay: cell-based; type: cell-based; settings: for +/− HCB1: agonist or inverse agonist at hCB1
How it was run: (§1)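 Readout: LANCE TR-FRET cAMP, back-calculated from a concurrent standard curve and scaled between forskolin-only and forskolin + 1 μM CP55,940 wells. EC50 and intrinsic activity came from four-parameter fits.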

rat CB2 receptor (rCB2) = biological target: T1, rat CB2 receptor (rCB2) (Rattus norvegicus, UniProt Q9QZN9); assay: cell-based; type: cell-based; settings: agonist or inverse agonist at rCB2
T1 sequence (Q9QZN9 1-360): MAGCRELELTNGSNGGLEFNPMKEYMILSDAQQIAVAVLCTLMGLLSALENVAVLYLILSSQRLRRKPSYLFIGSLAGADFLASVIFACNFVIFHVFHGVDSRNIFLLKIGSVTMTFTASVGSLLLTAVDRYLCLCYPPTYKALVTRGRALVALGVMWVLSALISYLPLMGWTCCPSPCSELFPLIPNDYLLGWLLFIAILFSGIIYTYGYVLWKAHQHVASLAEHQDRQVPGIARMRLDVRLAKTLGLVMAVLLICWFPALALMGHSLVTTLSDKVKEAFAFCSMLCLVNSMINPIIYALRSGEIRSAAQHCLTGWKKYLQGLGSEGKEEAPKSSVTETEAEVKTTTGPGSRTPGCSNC
How it was run: as §1

Chain of human CB1 receptor (hCB1) (P21554 whole entry): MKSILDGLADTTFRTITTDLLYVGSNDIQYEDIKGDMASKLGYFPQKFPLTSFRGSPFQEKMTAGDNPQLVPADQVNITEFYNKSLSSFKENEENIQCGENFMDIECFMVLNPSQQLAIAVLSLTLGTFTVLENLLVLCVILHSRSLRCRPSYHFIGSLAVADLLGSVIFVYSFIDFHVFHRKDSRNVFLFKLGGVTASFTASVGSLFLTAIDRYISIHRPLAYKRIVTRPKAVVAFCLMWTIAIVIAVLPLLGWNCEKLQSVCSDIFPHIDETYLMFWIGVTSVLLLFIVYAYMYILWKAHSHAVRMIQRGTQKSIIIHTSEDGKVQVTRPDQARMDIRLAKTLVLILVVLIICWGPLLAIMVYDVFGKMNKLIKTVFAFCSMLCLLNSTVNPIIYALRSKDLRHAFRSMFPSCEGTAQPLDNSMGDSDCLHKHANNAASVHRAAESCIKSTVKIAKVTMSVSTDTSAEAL

Structure (SMILES) | EC50 [1] | +/− RCB2 (rat CB2 receptor (rCB2)) | +/− HCB1 [1] | EC50 ([1]; groups >100 nM-10 μM and >10 μM, cAMP, CHO-K1 hCB1, read-out: EC50 HCB1)
CCN1CCCn2c(-c3ccccc3)nc(C(=O)N[C@H](c3nc(C)no3)C(C)(C)C)c2C1 [Compound 524, (S)-N-(2,2-dimethyl-1-(3-methyl-1,2,4-oxadiazol-5-yl)propyl)-8-ethyl-3-phenyl-6,7,8,9-tetrahydro-5H-imidazo[1,5-a][1,4]diazepine-1-carboxamide] | > 10000 nM | − |  | 
Cc1ccc(-c2nc(C(=O)N[C@H](c3nc(C)no3)C(C)(C)C)c3n2CCCN(C)C3)c(F)c1 [Compound 522, (S)-N-(2,2-dimethyl-1-(3-methyl-1,2,4-oxadiazol-5-yl)propyl)-3-(2-fluoro-4-methylphenyl)-8-methyl-6,7,8,9-tetrahydro-5H-imidazo[1,5-a][1,4]diazepine-1-carboxamide] | > 10000 nM | − |  | 
CN1CCCn2c(-c3ccc(F)c(Cl)c3)nc(C(=O)N[C@H](C(=O)N(C)C)C(C)(C)C)c2C1 [Compound 558, (S)-3-(3-chloro-4-fluorophenyl)-N-(1-(dimethylamino)-3,3-dimethyl-1-oxobutan-2-yl)-8-methyl-6,7,8,9-tetrahydro-5H-imidazo[1,5-a][1,4]diazepine-1-carboxamide] |  | + | + | 
CNC(=O)[C@@H](NC(=O)c1nc(Cl)n2c1CN(C)CCC2)C(C)(C)C [Compound 598, (S)-3-chloro-N-(3,3-dimethyl-1-(methylamino)-1-oxobutan-2-yl)-8-methyl-6,7,8,9-tetrahydro-5H-imidazo[1,5-a][1,4]diazepine-1-carboxamide] | > 10000 nM | + |  | 
CNC(=O)[C@@H](NC(=O)c1nc(/C=C/C(C)(C)C)n2c1CN(C)CCC2)C(C)(C)C [Compound 397, (S,E)-N-(3,3-dimethyl-1-(methylamino)-1-oxobutan-2-yl)-3-(3,3-dimethylbut-1-enyl)-8-methyl-6,7,8,9-tetrahydro-5H-imidazo[1,5-a][1,4]diazepine-1-carboxamide] |  | + | + | 
CNC(=O)[C@@H](NC(=O)c1nc(C2CC2)n2c1CN(C)CC2)C(C)(C)C [Compound 269, (S)-3-cyclopropyl-N-(3,3-dimethyl-1-(methylamino)-1-oxobutan-2-yl)-7-methyl-5,6,7,8-tetrahydroimidazo[1,5-a]pyrazine-1-carboxamide] |  | + | + | 
CNC(=O)[C@@H](NC(=O)c1nc(C(C)c2ccccc2)n2c1CN(C)CCC2)C(C)(C)C (stereo partly drawn) [Compound 506, N-((S)-3,3-dimethyl-1-(methylamino)-1-oxobutan-2-yl)-8-methyl-3-(1-phenylethyl)-6,7,8,9-tetrahydro-5H-imidazo[1,5-a][1,4]diazepine-1-carboxamide] |  | + | + | 
O=C(NC1CCCCC1)c1nc(-c2ccccc2)n2c1CN(CCO)CC2 [Compound 166, N-cyclohexyl-7-(2-hydroxyethyl)-3-phenyl-5,6,7,8-tetrahydroimidazo[1,5-a]pyrazine-1-carboxamide] |  | − |  | > 10000 nM
CNC(=O)[C@H](CC(C)(C)C)NC(=O)c1nc(-c2cc(Cl)c(F)cc2F)n2c1CN(C)CCC2 [Compound 554, (S)-3-(5-chloro-2,4-difluorophenyl)-N-(4,4-dimethyl-1-(methylamino)-1-oxopentan-2-yl)-8-methyl-6,7,8,9-tetrahydro-5H-imidazo[1,5-a][1,4]diazepine-1-carboxamide] |  | + | + | 
CNC(=O)[C@@H](NC(=O)c1nc(-c2cccc(F)c2F)n2c1CN(C)CCC2)C(C)(C)C [Compound 369, (S)-3-(2,3-difluorophenyl)-N-(3,3-dimethyl-1-(methylamino)-1-oxobutan-2-yl)-8-methyl-6,7,8,9-tetrahydro-5H-imidazo[1,5-a][1,4]diazepine-1-carboxamide] | > 10000 nM | + |  | 
CNC(=O)[C@H](CC(C)C)NC(=O)c1nc(-c2cc(F)c(F)cc2F)n2c1CN(C)CCC2 [Compound 538] |  | + | + | 
